Assay results published in USRE47221E1, “Tricyclic compounds” (AbbVie Inc., priority 2009, dated 2019).

Molecular target: T1, Jak3 (Homo sapiens, UniProt P52333)
T1 construct: Jak3 enzyme (aa 811-1103); expressed in SF9 cells as a GST fusion; GST; made in house; host or cells: SF9 insect cells
Assay: Jak3 enzyme data for selected compounds
Type: biochemical

T1 sequence (P52333 811-1103): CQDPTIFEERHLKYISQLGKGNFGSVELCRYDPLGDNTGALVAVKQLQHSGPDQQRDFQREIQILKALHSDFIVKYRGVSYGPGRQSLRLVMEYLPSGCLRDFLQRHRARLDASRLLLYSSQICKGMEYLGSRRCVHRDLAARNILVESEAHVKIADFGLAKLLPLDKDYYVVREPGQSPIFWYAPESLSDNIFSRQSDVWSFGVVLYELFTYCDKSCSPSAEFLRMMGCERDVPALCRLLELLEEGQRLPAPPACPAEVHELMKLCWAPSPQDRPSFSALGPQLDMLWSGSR

C[C@@H]1CCN(C(=O)C2CCS(=O)(=O)C2)C[C@@H]1c1ncc2cnc3[nH]ccc3n12 (mixture of isomers) [H.1.29]
IC50: < 100 nM

CC[C@@H]1C[C@H](OCc2ccc(OC)cc2)C[C@H]1c1nnc2cnc3[nH]ccc3n12 (racemic) [D.1.38]
IC50: 100 to 1000 nM

C[C@H]1CCN(S(=O)(=O)CCC(F)(F)F)C[C@@H]1Nc1ncc2cnc3[nH]ccc3n12 (racemic) [D.1.66]
IC50: > 1000 nM

O=S(=O)(CCC(F)(F)F)N1CCC[C@H]2[C@H]1CCN2c1ncc2cnc3[nH]ccc3n12 (racemic) [D.1.69]
IC50: > 1000 nM

CC[C@@H]1C[C@@H](Oc2ccc(C#N)cn2)C[C@H]1c1nnc2cnc3[nH]ccc3n12 (racemic) [D.2.10]
IC50: > 1000 nM

CC[C@@H]1C[C@@H](Oc2ccc(C#N)cn2)C[C@@H]1c1nnc2cnc3[nH]ccc3n12 (racemic) [D.2.22]
IC50: 100 to 1000 nM

C[C@@H]1CCN(C(=O)C2(C#N)CC2)C[C@@H]1c1ncc2cnc3[nH]ccc3n12 (racemic) [H.3.14]
IC50: 100 to 1000 nM

C[C@@H]1CCN(C(=O)N2CCCC2)C[C@@H]1c1ncc2cnc3[nH]ccc3n12 (racemic) [I.2.1]
IC50: < 100 nM

C[C@H]1CCN(C(=O)N(C)C)C[C@H]1c1ncc2cnc3[nH]ccc3n12 (racemic) [I.2.2]
IC50: < 100 nM

C[C@H]1CCN(C(=O)N2CC(C#N)C2)C[C@H]1c1ncc2cnc3[nH]ccc3n12 (racemic) [J.1.1]
IC50: < 100 nM

C[C@@H]1CCN(C(=O)N2CC[C@H](C#N)C2)C[C@@H]1c1ncc2cnc3[nH]ccc3n12 (racemic) [J.2.1]
IC50: < 100 nM

C[C@H]1CCN(C(=O)N2CC[C@@H](C)[C@@H](c3ncc4cnc5[nH]ccc5n34)C2)C1 (racemic) [J.2.10]
IC50: < 100 nM

C[C@@H]1CCN(c2cnc(C#N)cn2)C[C@@H]1c1ncc2cnc3[nH]ccc3n12 (racemic) [L.1.2]
IC50: < 100 nM

C[C@@H]1CCN(c2ncc(C#N)s2)C[C@@H]1c1ncc2cnc3[nH]ccc3n12 (racemic) [L.1.4]
IC50: < 100 nM

CC[C@@H]1C[C@H](Oc2cnc(C#N)cn2)C[C@@H]1c1nnc2cnc3[nH]ccc3n12 (relative stereo) [AA.1.37, 5-(3-ethyl-4-(6H-pyrrolo[2,3-e][1,2,4]triazolo[4,3-a]pyrazin-1-yl)cyclopentyloxy)pyrazine-2-carbonitrile]
IC50: 100 to 1000 nM

CC[C@@H]1C[C@@H](OCCC(F)(F)F)C[C@@H]1c1nnc2cnc3[nH]ccc3n12 (relative stereo) [AA.1.107, 1-(2-ethyl-4-(3,3,3-trifluoropropoxy)cyclopentyl)-6H-pyrrolo[2,3-e][1,2,4]triazolo[4,3-a]pyrazine]
IC50: < 100 nM

N#Cc1ccc(N[C@@H]2CC[C@@H](c3ncc4cnc5[nH]ccc5n34)C2)cc1 (single isomer, unassigned) [AA.1.3]
IC50: 100 to 1000 nM

CC[C@H]1C[C@H](NS(=O)(=O)C2CC2)C[C@@H]1c1nnc2cnc3[nH]ccc3n12 (single isomer, unassigned) [AA.1.5]
IC50: 100 to 1000 nM

O=C(N1CCC[C@@H](c2cnc3cnc4[nH]ccc4n23)C1)N1CC(F)(F)C1 (single isomer, unassigned) [AA.1.6, (3-(3H-imidazo[1,2-a]pyrrolo[2,3-e]pyrazin-8-yl)piperidin-1-yl)(3,3-difluoroazetidin-1-yl)methanone]
IC50: < 100 nM

O=C(N1CCC[C@@H](c2cnc3cnc4[nH]ccc4n23)C1)N1CCC(F)(F)C1 (single isomer, unassigned) [AA.1.8, (3-(3H-imidazo[1,2-a]pyrrolo[2,3-e]pyrazin-8-yl)piperidin-1-yl)(3,3-difluoropyrrolidin-1-yl)methanone]
IC50: < 100 nM

O=C(N1CCC(F)(F)CC1)N1CCC[C@@H](c2cnc3cnc4[nH]ccc4n23)C1 (single isomer, unassigned) [AA.1.9, (3-(3H-imidazo[1,2-a]pyrrolo[2,3-e]pyrazin-8-yl)piperidin-1-yl)(4,4-difluoropiperidin-1-yl)methanone]
IC50: 100 to 1000 nM

C[C@@H]1CCN(c2ncc(C#N)s2)C[C@@H]1c1ncc2cnc3[nH]ccc3n12 (single isomer, unassigned) [AA.1.11, 2-(-3-(6H-imidazo[1,5-a]pyrrolo[2,3-e]pyrazin-1-yl)-4-methylpiperidin-1-yl)thiazole-5-carbonitrile]
IC50: < 100 nM

C[C@@H]1C[C@H](Nc2cnc(C#N)cn2)C[C@@H]1c1cnc2cnc3[nH]ccc3n12 (single isomer, unassigned) [AA.1.16, 5-(3-(3H-imidazo[1,2-a]pyrrolo[2,3,-e]pyrazin-8-yl)-4-methylcyclopentylamino)pyrazine-2-carbonitrile]
IC50: 100 to 1000 nM

C[C@@H]1C[C@H](Nc2cnc(C#N)cn2)C[C@H]1c1cnc2cnc3[nH]ccc3n12 (single isomer, unassigned) [AA.1.18, 5-(3-(3H-imidazo[1,2-a]pyrrolo[2,3,-e]pyrazin-8-yl)-4-methylcyclopentylamino)pyrazine-2-carbonitrile]
IC50: < 100 nM

N#Cc1cnc(N2CCC[C@@H](c3cnc4cnc5[nH]ccc5n34)C2)s1 (single isomer, unassigned) [AA.1.22, 2-(3-(3H-imidazo[1,2-a]pyrrolo[2,3,-e]pyrazin-8-yl)piperidin-1-yl)thiazole-5-carbonitrile]
IC50: < 100 nM

CC[C@H]1C[C@@H](NS(=O)(=O)C2CC2)C[C@H]1c1cnc2cnc3[nH]ccc3n12 (single isomer, unassigned) [AA.1.25, N-(3-ethyl-4-(3H-imidazo[1,2-a]pyrrolo[2,3-e]pyrazin-8-yl)cyclopentyl)cyclopropanesulfonamide]
IC50: < 100 nM

CC[C@@H]1C[C@@H](Oc2ccc(C#N)cn2)C[C@@H]1c1nnc2cnc3[nH]ccc3n12 (single isomer, unassigned) [AA.1.29, 6-(3-ethyl-4-(6H-pyrrolo[2,3-e][1,2,4]triazolo[4,3-a]pyrazin-1-yl)cyclopentyloxy)-nicotinonitrile]
IC50: > 1000 nM

CC[C@@H]1C[C@H](OCc2ccc(OC)cc2)C[C@H]1c1nnc2cnc3[nH]ccc3n12 (single isomer, unassigned) [AA.1.32, 1-(2-ethyl-4-(4-methoxybenzyloxy)cyclopentyl)-6H-pyrrolo[2,3-e][1,2,4]triazolo [4,3-a]pyrazine]
IC50: 100 to 1000 nM

CC[C@@H]1C[C@@H](Oc2cnc(C#N)cn2)C[C@@H]1c1nnc2cnc3[nH]ccc3n12 (single isomer, unassigned) [AA.1.33, 5-(3-ethyl-4-(6H-pyrrolo[2,3-e][1,2,4]triazolo[4,3-a]pyrazin-1-yl)cyclopentyloxy)pyrazine-2-carbonitrile]
IC50: 100 to 1000 nM

CC[C@H]1C[C@@H](COc2cnc(C#N)cn2)C[C@H]1c1nnc2cnc3[nH]ccc3n12 (single isomer, unassigned) [AA.1.42, 5-((cis-3-ethyl-4-(6H-pyrrolo[2,3-e][1,2,4]triazolo[4,3-a]pyrazin-1-yl)cyclopentyl)methoxy)-pyrazine-2-carbonitrile]
IC50: > 1000 nM

CC[C@@H]1C[C@H](NS(=O)(=O)C2CC2)C[C@]1(F)c1nnc2cnc3[nH]ccc3n12 (single isomer, unassigned) [AA.1.43, N-(cis-4-ethyl-3-fluoro-3-(6H-pyrrolo[2,3-e][1,2,4]triazolo[4,3-a]pyrazin-1-yl)cyclopentyl)cyclo-propanesulfonamide]
IC50: < 100 nM

CC[C@H]1C[C@@H](NS(=O)(=O)C2CC2)C[C@]1(F)c1nnc2cnc3[nH]ccc3n12 (single isomer, unassigned) [AA.1.44, N-(cis-4-ethyl-3-fluoro-3-(6H-pyrrolo[2,3-e][1,2,4]triazolo[4,3-a]pyrazin-1-yl)cyclopentyl)cyclo-propanesulfonamide]
IC50: 100 to 1000 nM

CC[C@@H]1CCN(C(=O)CC#N)C[C@@H]1c1ncc2cnc3[nH]ccc3n12 (single isomer, unassigned) [AA.1.54, 3-(cis-4-ethyl-3-(6H-imidazo[1,5-a]pyrrolo[2,3-e]pyrazin-1-yl)piperidin-1-yl)-3-oxopropanenitrile]
IC50: 100 to 1000 nM

O=S(=O)(NC[C@H]1CC[C@H](c2ncc3cnc4[nH]ccc4n23)C1)C1CC1 (single isomer, unassigned) [AA.1.60]
IC50: 100 to 1000 nM

O=S(=O)(NC[C@H]1CC[C@@H](c2ncc3cnc4[nH]ccc4n23)C1)C1CC1 (single isomer, unassigned) [AA.1.61]
IC50: 100 to 1000 nM

O=S(=O)(CCC(F)(F)F)NC[C@H]1CC[C@@H](c2ncc3cnc4[nH]ccc4n23)C1 (single isomer, unassigned) [AA.1.62]
IC50: 100 to 1000 nM

O=S(=O)(CCC(F)(F)F)NC[C@H]1CC[C@H](c2ncc3cnc4[nH]ccc4n23)C1 (single isomer, unassigned) [AA.1.63]
IC50: > 1000 nM

CCC1CC(CNS(=O)(=O)C2CC2)CC1c1nnc2cnc3[nH]ccc3n12 (single isomer, unassigned) [AA.1.64, N-((3-ethyl-4-(6H-pyrrolo[2,3-e][1,2,4]triazolo[4,3-a]pyrazin-1-yl)cyclopentyl)methyl)cyclopropane sulfonamide]
IC50: > 1000 nM

CC[C@@H]1C[C@H](OCC2CCOCC2)C[C@H]1c1nnc2cnc3[nH]ccc3n12 (single isomer, unassigned) [AA.1.66, 1-(2-ethyl-4-((tetrahydro-2H-pyran-4-yl)methoxy)cyclopentyl)-6H-pyrrolo[2,3-e][1,2,4]triazolo[4,3-a]pyrazine]
IC50: > 1000 nM

CC[C@@H]1C[C@H](OCC2CCOCC2)C[C@@H]1c1nnc2cnc3[nH]ccc3n12 (single isomer, unassigned) [AA.1.67, 1-(2-ethyl-4-((tetrahydro-2H-pyran-4-yl)methoxy)cyclopentyl)-6H-pyrrolo[2,3-e][1,2,4]triazolo[4,3-a]pyrazine]
IC50: > 1000 nM

CC[C@H]1C[C@@H](NS(=O)(=O)CCC(F)(F)F)C[C@H]1c1cnc2cnc3[nH]ccc3n12 (single isomer, unassigned) [AA.1.76, N-(3-ethyl-4-(3H-imidazo[1,2-a]pyrrolo[2,3-e]pyrazin-8-yl)cyclopentyl)-3,3,3-trifluoropropane-1-sulfonamide]
IC50: > 1000 nM

CC[C@@H]1C[C@H](NS(=O)(=O)CCC(F)(F)F)C[C@@H]1c1cnc2cnc3[nH]ccc3n12 (single isomer, unassigned) [AA.1.77, N-(3-ethyl-4-(3H-imidazo[1,2-a]pyrrolo[2,3-e]pyrazin-8-yl)cyclopentyl)-3,3,3-trifluoropropane-1-sulfonamide]
IC50: < 100 nM
